Assay results: ChEMBL document CHEMBL4033603, “Spongian-16-one Diterpenes and Their Anatomical Distribution in the Australian Nudibranch Goniobranchus collingwoodi” (J Nat Prod, 2017)

Assays:
Type in all cases: functional, cell-based
[1] = system: NCI-H460; experiment: Cytotoxicity against human NCI-H460 cells assessed as reduction in cell viability after 48 hrs by MTT assay; settings: NCI-H460, 48 h
[2] = system: SW-620; experiment: Cytotoxicity against human SW620 cells assessed as reduction in cell viability after 48 hrs by MTT assay; settings: SW-620, 48 h
[3] = system: HepG2; experiment: Cytotoxicity against human HepG2 cells assessed as reduction in cell viability after 48 hrs by MTT assay; settings: HepG2, 48 h
[4] = system: L1210; experiment: Cytotoxicity against mouse L1210 cells assessed as reduction in cell viability
[5] = system: KB; experiment: Cytotoxicity against human KB cells assessed as reduction in cell viability

Compound	IC50 [1] [µM]	IC50 [2] [µM]	IC50 [3] [µM]	IC50 [4] [µM]	IC50 [5] [µM]
CC(=O)OC[C@]12CCCC(C)(C)[C@@H]1CC[C@@]1(C)[C@@H]3COC(=O)[C@@H]3[C@@H](OC(C)=O)C[C@@H]12	> 30	> 30	> 30	–	–
CCC(=O)OC[C@]12CCCC(C)(C)[C@@H]1CC[C@@]1(C)[C@@H]3COC(=O)[C@@H]3[C@@H](OC(C)=O)C[C@@H]12	> 30	> 30	> 30	–	–
CC(=O)OC[C@]12CCCC(C)(C)[C@@H]1CC[C@@]1(C)[C@@H]3COC(=O)[C@@H]3C[C@H](OC(C)=O)[C@@H]12	> 30	> 30	> 30	–	–
CCC(=O)OC[C@]12CCCC(C)(C)[C@@H]1C[C@@H](OC(=O)CC(C)C)[C@@]1(C)[C@@H]3COC(=O)[C@@H]3C[C@H](O)[C@H]21	> 30	> 30	> 30	–	–
CC(=O)O[C@@H]1C[C@H]2C(C)(C)CCC[C@]2(C)[C@H]2CC[C@H]3C(=O)OC[C@H]3[C@@]21C	–	–	–	6.1	44.1
CCC(=O)O[C@@H]1C[C@H]2C(=O)OC[C@H]2[C@@]2(C)[C@H]1[C@@]1(C)CCCC(C)(C)[C@@H]1C[C@H]2OC(=O)CC(C)C	> 30	> 30	> 30	–	–
CCC(=O)OC[C@]12CCCC(C)(C)[C@@H]1CC[C@@]1(C)[C@@H]3COC(=O)[C@@H]3C[C@H](OC(C)=O)[C@@H]12	> 30	> 30	> 30	–	–
CC1(C)CCC[C@]2(C)[C@H]3CC[C@H]4C(=O)OC[C@H]4[C@]3(C)CC[C@@H]12	–	–	–	16.4	30.2
